From ChEMBL document CHEMBL2069220, “Targeting peroxisome proliferator-activated receptors (PPARs): development of modulators” (J Med Chem, 2012) come the findings set out here.

Test [1] concerns the target T1, Peroxisome proliferator-activated receptor gamma (Homo sapiens, UniProt P37231).
T1 sequence (P37231 whole entry): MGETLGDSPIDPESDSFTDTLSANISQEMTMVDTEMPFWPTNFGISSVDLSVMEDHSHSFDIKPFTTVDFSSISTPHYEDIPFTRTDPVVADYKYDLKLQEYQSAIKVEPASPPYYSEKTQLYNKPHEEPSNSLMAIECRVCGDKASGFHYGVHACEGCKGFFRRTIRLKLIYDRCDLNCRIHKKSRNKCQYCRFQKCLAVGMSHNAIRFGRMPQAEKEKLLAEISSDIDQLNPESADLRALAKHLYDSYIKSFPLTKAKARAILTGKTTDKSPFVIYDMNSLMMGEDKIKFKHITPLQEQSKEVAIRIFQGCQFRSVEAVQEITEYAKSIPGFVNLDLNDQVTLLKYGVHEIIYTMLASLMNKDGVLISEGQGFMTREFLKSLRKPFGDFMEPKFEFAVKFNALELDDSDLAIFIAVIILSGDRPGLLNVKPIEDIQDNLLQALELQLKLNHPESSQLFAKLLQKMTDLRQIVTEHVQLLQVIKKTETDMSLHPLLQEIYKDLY
Description: Binding affinity to PPARgamma.

Test [2] has as its target T2, Peroxisome proliferator-activated receptor alpha (Homo sapiens, UniProt Q07869).
T2 sequence (Q07869 whole entry): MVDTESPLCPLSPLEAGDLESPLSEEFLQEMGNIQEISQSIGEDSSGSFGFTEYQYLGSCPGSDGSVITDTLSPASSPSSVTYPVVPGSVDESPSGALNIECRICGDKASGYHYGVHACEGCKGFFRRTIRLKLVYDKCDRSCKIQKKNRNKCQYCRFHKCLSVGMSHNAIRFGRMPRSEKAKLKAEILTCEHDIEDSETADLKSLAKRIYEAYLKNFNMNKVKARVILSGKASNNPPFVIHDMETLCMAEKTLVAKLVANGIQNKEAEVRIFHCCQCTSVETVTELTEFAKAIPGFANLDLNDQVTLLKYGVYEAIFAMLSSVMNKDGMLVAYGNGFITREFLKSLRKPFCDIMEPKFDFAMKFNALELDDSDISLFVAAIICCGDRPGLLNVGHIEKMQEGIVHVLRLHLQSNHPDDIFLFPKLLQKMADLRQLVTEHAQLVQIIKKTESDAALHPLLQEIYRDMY
Description: Agonist activity at PPARalpha. The format is functional.

The species named for test [3] is Mus musculus. Description: Selectivity ratio for mouse PPRgamma to mouse PPRbeta/delta.
For test [4], the species on record is Homo sapiens. Description: Selectivity ratio for human PPRgamma over human PPRbeta/delta.
Test [5] is filed under the species Homo sapiens. Description: Selectivity ratio for human PPRalpha over human PPRbeta/delta.
For test [6], the species on record is Mus musculus. Description: Selectivity ratio for mouse PPRalpha over mouse PPRbeta/delta.
Test [7] is filed under the species Homo sapiens. Description: Selectivity ratio for PPRbeta/delta over PPRgamma.
The species entered for test [8] is Homo sapiens. Description: Selectivity ratio for PPRalpha over PPRgamma.

A value given as a limit tells only on which side of the number the result lay.

In general, Kd refers to the constant that tells how readily two partners part at equilibrium. With `CC/C=C\C/C=C\C/C=C\C/C=C\C/C=C\CCCC(=O)O` [ICOSAPENT], the Kd in test [1] was found to be 2000 nM.
Still for that read-out and setting: the value for `CCCCCC(O)/C=C\C=C/CCCCCCCC(=O)O` (stereo not drawn) was 2000 nM; that for `CCCCC/C=C\C=C\C(O)CCCCCCCC(=O)O` (stereo not drawn) was 2000 nM.
A word on the EC50: it is the concentration giving half of the maximal effect. On to `CC(C)(Oc1ccc(CCOc2ccc(/C=C/C(=O)c3cc(Cl)ccc3O)cc2)cc1)C(=O)O`, for which the EC50 in test [2] stood at 60 nM.
As for `CCCc1c(OCCCOc2ccc(OCC(=O)O)cc2)ccc(C(C)=O)c1O`, the Selectivity ratio in test [3], in test [4], in test [5] and in test [6] was over 100 each time.
On to `CN(CCOc1ccc(C[C@H](Nc2ccccc2C(=O)c2ccccc2)C(=O)O)cc1)c1ccccn1`, for which the Selectivity ratio in test [7] and in test [8] was over 1000 throughout.
As for `COC(=O)c1ccccc1N[C@@H](Cc1ccc(OCCc2nc(-c3ccccc3)oc2C)cc1)C(=O)O`, the Selectivity ratio in test [7] and in test [8] was over 1000 in each case.
On to `CCCCC/C=C/C=C1/C(=O)C=C[C@@H]1C/C=C\CCCC(=O)O`, for which the affinity in test [1], expressed as Kd, was 2000 nM. This lies in the single-digit micromolar range.
